Laboratory results from the RepoRT retention time repository (doi:10.1016/j.chroma.2015.11.014).

test: RP, Agilent ZORBAX Eclipse Plus C18, 150 × 2.1 mm, 3.5 µm, 40 °C, 0.3 mL/min, estimated dead time 1.1 min; A: water + 0.1% formic acid; B: acetonitrile + 0.1% formic acid; gradient (min/%B) 0/2 1/2 2/20 16.5/98 22/98; conditions: stereoisomer not certain

Row | Compound | LC retention time [min]
1 | CCN(Cc1cccc(S(=O)(=O)O)c1)c1ccc(C(=C2C=CC(=[N+](CC)Cc3cccc(S(=O)(=O)O)c3)C=C2)c2ccccc2S(=O)(=O)[O-])cc1 | 7.08
2 | O=[N+]([O-])c1ccc(O)c([N+](=O)[O-])c1 | 9.21
3 | O=C(CCc1ccc(O)cc1)c1c(O)cc(O)cc1O | 8.77
4 | CC1(C)CC(OC(=O)CCCCCCCCC(=O)OC2CC(C)(C)NC(C)(C)C2)CC(C)(C)N1 | 6.57
5 | CC(C)(C)NCC(O)COc1cccc2c1CC(O)C(O)C2 (stereo not drawn) | 5.13
6 | Nc1ncnc2c1ncn2C1OC(CO)C(O)C1O (stereo not drawn) | 3.2
7 | CCCCCCCCCCCCCCCCCCCC[N+](C)(C)C | 15.7
8 | Cc1cc(C)nc(NS(=O)(=O)c2ccc(N)cc2)n1 | 6.12
9 | NC1=NC(O)c2ncn(COCCO)c2N1 (stereo not drawn) | 3.12
10 | CCCOP(=O)(OCCC)OCCC | 10.9
11 | CNC(=O)Oc1ccccc1OC(C)C | 9.47
12 | CN(C)C(=N)N=C(N)N | 1.52
13 | CCCCCCCCN1CCCC1=O | 12.6
14 | CCC1(c2cccc(O)c2)CCCCN(C)C1 (stereo not drawn) | 5.64
15 | COc1ccc2c(c1)CCC1C2CCC2(C)C(=O)CCC12 (stereo not drawn) | 10.5
16 | CC(C)NCC(O)COc1ccc(CCOCC2CC2)cc1 (stereo not drawn) | 7.06
17 | CC12CCC(=O)C=C1CCC1C2CCC2(C)C(O)CCC12 (stereo not drawn) | 11
18 | CCCC[N+]1(C)CCCCC1 | 4.66
19 | CCC(C)C(N)C(=O)O (stereo not drawn) | 2.36
20 | CCN(C)C(=O)Oc1cccc(C(C)N(C)C)c1 (stereo not drawn) | 6.08
21 | CCCCCCCCN | 6.9
22 | CC(C)NCC(O)COc1ccc(CCO)cc1 (stereo not drawn) | 5.11
23 | Nc1nc2c(ncn2COC(CO)CO)c(=O)[nH]1 | 2.23
24 | Nc1nc2c(ncn2CCC(CO)CO)c(=O)[nH]1 | 2.6

Row | Compound | LC retention time [min]
25 | Cc1cc(N)no1 | 4.41
26 | CCCCCCCCCCCC[N+](C)(C)Cc1ccccc1 | 11.6
27 | CCCCCCN1C=CN(C)C1 | 5.73
28 | O=P(O)(Oc1ccccc1)Oc1ccccc1 | 8.14
29 | CCCCN1C=CC=CC1 | 4.24
30 | CCCCC[N+](CCCCC)(CCCCC)CCCCC | 11.3
31 | CCCCCCCCCCCCCC(=O)OCC(O)COP(=O)([O-])OCC[N+](C)(C)C (stereo not drawn) | 12.7
32 | CC(C)c1nc(CN(C)C(=O)NC(C(=O)NC(Cc2ccccc2)CC(O)C(Cc2ccccc2)NC(=O)OCc2cncs2)C(C)C)cs1 (stereo not drawn) | 12.7
33 | CCC(C)C1OC2(C=CC1C)CC1CC(CC=C(C)C(OC3CC(OC)C(OC4CC(OC)C(NC(C)=O)C(C)O4)C(C)O3)C(C)C=CC=C3COC4C(O)C(C)=CC(C(=O)O1)C34O)O2 (stereo not drawn) | 16.2
34 | COc1cc(Cc2cnc(N)nc2N)cc(OC)c1O | 4.78
35 | CCCc1nn(C)c2c(=O)[nH]c(-c3cc(S(=O)(=O)N4CCN(C)CC4)ccc3OCC)nc12 | 7.28
36 | O=C(O)CCCCC(=O)O | 5.22
37 | CCOC(=O)c1cncn1C(C)c1ccccc1 (stereo not drawn) | 8.83
38 | CCCCCCCCn1sccc1=O | 11.9
39 | CC12CCC(=O)C=C1CCC1C2CCC2(C)C1CCC2(C)O (stereo not drawn) | 11.6
40 | CCN(CC)C(=O)C(C)Oc1cccc2ccccc12 (stereo not drawn) | 12.6
41 | CCN(CC)CC(=O)Nc1c(C)cccc1C | 5.77
42 | O=C(O)CC(O)(CC(=O)O)C(=O)O | 2.08
43 | CCCOc1ccc2nc(NC(=O)OC)[nH]c2c1 | 6.66
44 | CN1C2CCC1C(C(=O)O)C(OC(=O)c1ccccc1)C2 (stereo not drawn) | 5.64
45 | Cc1cc2n[nH]nc2cc1C | 8.01
46 | CC1(C)CCCC(C)(C)N1O | 10.4
47 | CCC(C)(C)C(=O)OC1CC(C)C=C2C=CC(C)C(CCC3CC(O)CC(=O)O3)C21 (stereo not drawn) | 15.4
48 | NP(=O)(c1ccccc1)c1ccccc1 | 7.41

Row | Compound | LC retention time [min]
49 | CCCCCCCCCCCC[N+](C)(C)C | 10
50 | CN1CCC23CCCCC2C1Cc1ccc(O)cc13 (stereo not drawn) | 5.97
51 | CCC1OC(=O)C(C)C(OC2CC(C)(OC)C(O)C(C)O2)C(C)C(OC2OC(C)CC(N(C)C)C2O)C(C)(O)CC(C)C(=O)C(C)C(O)C1(C)O (stereo not drawn) | 7.85
52 | Nc1cccc2c1CN(C1CCC(=O)NC1=O)C2=O (stereo not drawn) | 5.24
53 | CCCCCCCCCCCCOC(=O)c1cc(O)c(O)c(O)c1 | 16
54 | CCC(CC)OC1C=C(C(=O)O)CC(N)C1NC(C)=O (stereo not drawn) | 5.65
55 | CC12CCC3c4ccc(OS(=O)(=O)O)cc4CCC3C1CCC2=O (stereo not drawn) | 11.1
56 | CC(=O)Nc1ccc(S(=O)(=O)Nc2cc(C)on2)cc1 | 7.41
57 | Nc1ccc(S(=O)(=O)Nc2nccs2)cc1 | 5.37
58 | CCNc1nc(N)[nH]c(=O)n1 | 2.31
59 | C=CCC1=C(C)C(OC(=O)C2C(C=C(C)C)C2(C)C)CC1=O (stereo not drawn) | 16.1
60 | COC1C(O)CC(=O)OC(C)CC=CC=CC(OC2CCC(N(C)C)C(C)O2)C(C)CC(CC=O)C1OC1OC(C)C(OC2CC(C)(O)C(O)C(C)O2)C(N(C)C)C1O (stereo not drawn) | 5.77
61 | COCC(O)c1ccc(OCC(O)CNC(C)C)cc1 (stereo not drawn) | 5.06
62 | COc1ccc(-c2coc3cc(O)ccc3c2=O)cc1 | 10.1
63 | CC1(C)CC(O)CC(C)(C)N1CCO | 2.16
64 | CCCCCCCCCCC(C(=O)c1ccc(OC)cc1)[N+](C)(C)C (stereo not drawn) | 11.3
65 | COc1cc(Cc2c(N)nc(N)[nH]c2=O)cc(OC)c1OC | 5.43
66 | CCC(CCC(C)O)COC(=O)C(C#N)=C(c1ccccc1)c1ccccc1 (stereo not drawn) | 13.8
67 | CC(=O)Nc1cc(N)cc(C(=O)O)c1 | 4.46
68 | CCc1cccc(C)c1N(C(=O)C(=O)O)C(C)COC (stereo not drawn) | 9.91
69 | Nc1nc(=S)c2[nH]cnc2[nH]1 | 2.69
70 | CC12CCC3c4ccc(O)cc4CCC3C1CC(O)C2=O (stereo not drawn) | 8.67

Further lines, results first:

Row | LC retention time [min] | Compound
71 | 10.8 | O=P(Cc1ccccc1)(c1ccccc1)c1ccccc1
72 | 5.15 | CC(C)NCC(O)COc1cccc2[nH]ccc12 (stereo not drawn)
73 | 8.71 | CN(C)CCC=C1c2ccccc2CCc2ccccc21
74 | 9.03 | CCCCCCCC[N+](C)(C)Cc1ccccc1
75 | 11.1 | Oc1ccc(Oc2ccccc2)cc1
76 | 7.72 | CC(C)[P+](c1ccccc1)(c1ccccc1)c1ccccc1
77 | 5.08 | CCOC(=O)Nc1cccc(N)c1C
78 | 10.5 | O=P(c1ccccc1)(c1ccccc1)c1ccccc1
79 | 7.39 | CC[P+](c1ccccc1)(c1ccccc1)c1ccccc1
80 | 8.09 | CCOC(=O)C(C)[P+](c1ccccc1)(c1ccccc1)c1ccccc1 (stereo not drawn)
81 | 4.29 | COC(=O)Nc1cccc(N)c1
82 | 3.47 | O=P(O)(O)Oc1ccccc1
83 | 19.6 | CC(C)(C)CC(C)(C)c1ccc(O)c(-n2nc3ccccc3n2)c1
84 | 9.53 | CN1C(C(=O)Nc2ccccn2)=C(O)c2ccccc2S1(=O)=O
85 | 5.77 | Cc1ccnc(NS(=O)(=O)c2ccc(N)cc2)n1
86 | 5.24 | On1nnc2ccccc21
87 | 7.19 | O=C([O-])CCC[P+](c1ccccc1)(c1ccccc1)c1ccccc1
88 | 8.87 | CN(C)c1ccc(C=O)cc1
89 | 8.85 | CCCC[P+](c1ccccc1)(c1ccccc1)c1ccccc1
90 | 9.47 | CSc1ccc2c(c1)N(CCC1CCCCN1C)c1ccccc1S2 (stereo not drawn)
91 | 4.8 | COCCOC(=O)Nc1cccc(N)c1
92 | 9.31 | CC(C)CC[P+](c1ccccc1)(c1ccccc1)c1ccccc1
93 | 14.2 | O=C1c2ccccc2C(=O)C1c1ccccc1
94 | 9.35 | CCCCC1=NC2(CCCC2)C(=O)N1Cc1ccc(-c2ccccc2-c2nn[nH]n2)cc1

Row | LC retention time [min] | Compound
95 | 5.9 | O=C(CO)Nc1ccccc1
96 | 4.35 | c1ccc(C2=NCCN2)cc1
97 | 6.13 | C[N+](C)(Cc1ccccc1)Cc1ccccc1
98 | 3.21 | CC(C)NCC(O)COc1ccc(C(O)C(N)=O)cc1 (stereo not drawn)
99 | 7.46 | CCCCCC[N+](C)(C)Cc1ccccc1
100 | 6.75 | O=C([O-])CC[P+](c1ccccc1)(c1ccccc1)c1ccccc1
101 | 11.8 | CC(C(=O)O)c1cccc(Oc2ccccc2)c1 (stereo not drawn)
102 | 13.6 | CCOC(=O)C(C#N)=C(c1ccccc1)c1ccccc1
103 | 5.82 | COC(=O)NN=Cc1c[n+]([O-])c2ccccc2[n+]1[O-]
104 | 5.62 | O=C(O)c1ccc(O)cc1
105 | 15.4 | CCOc1ccccc1NC(=O)C(=O)Nc1ccccc1CC
106 | 4.79 | Nc1nc2ccccc2[nH]1
107 | 12.9 | CCC(CCC(C)O)COC(=O)c1ccccc1O (stereo not drawn)
108 | 10.9 | COC(=O)C1=C(C)NC(C)=C(C(=O)OC)C1c1ccccc1[N+](=O)[O-]
109 | 12.6 | O=C1CC(c2ccccc2)Oc2ccccc21 (stereo not drawn)
110 | 2.18 | Nc1ccc(O)c(C(=O)O)c1
111 | 10 | Oc1ccc(Nc2ccccc2)cc1
112 | 4.86 | CCOC(=O)Nc1ccc(N)cc1
113 | 9.4 | O=C(c1ccccc1)c1ccc(O)c(O)c1O
114 | 11.4 | CCCCC(=O)N(Cc1ccc(-c2ccccc2-c2nn[nH]n2)cc1)C(C(=O)O)C(C)C (stereo not drawn)
115 | 13 | O=C(c1ccccc1)c1ccccc1O
116 | 5.35 | C=CC[N+](CC)(CC)Cc1ccccc1
117 | 12.2 | CSc1nc2ccccc2s1
118 | 8.34 | CCNC(=O)c1cccc(C)c1
